Columns and labels:
Test in all cases: SILAC RP-ABPP
Type in all cases: cell-based
[1] = target: T1, RAB14 Rasrelated protein Rab14 (P61106) (Homo sapiens, UniProt P61106); conditions: SILAC H/L, MDA-MB-231
T1 construct: endogenous in cells; host or cells: HEK293T or MDA-MB-231
How it was run: (§1)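 Heavy SILAC HEK293T or MDA-MB-231 cells were treated with a clickable hydrazine probe; light cells received the non-clickable analogue (enrichment) or the probe plus 10-fold excess non-clickable competitor (competition). Mixed proteomes underwent CuAAC with 100 μM biotin-azide for 1 h. Heavy:light ratios were taken as median peptide ratios (≥3 peptides) averaged over ≥3 replicates.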

[2] = target: T2, PHF8 Histone lysine demethylase PHF8 (Q9UPP1) (Homo sapiens, UniProt Q9UPP1); conditions: SILAC H/L, HEK293T
T2 construct: In Situ Labelling of Cells with Hydrazine Probes for MS Experiments; endogenous in cells
T2 sequence (Q9UPP1 whole entry): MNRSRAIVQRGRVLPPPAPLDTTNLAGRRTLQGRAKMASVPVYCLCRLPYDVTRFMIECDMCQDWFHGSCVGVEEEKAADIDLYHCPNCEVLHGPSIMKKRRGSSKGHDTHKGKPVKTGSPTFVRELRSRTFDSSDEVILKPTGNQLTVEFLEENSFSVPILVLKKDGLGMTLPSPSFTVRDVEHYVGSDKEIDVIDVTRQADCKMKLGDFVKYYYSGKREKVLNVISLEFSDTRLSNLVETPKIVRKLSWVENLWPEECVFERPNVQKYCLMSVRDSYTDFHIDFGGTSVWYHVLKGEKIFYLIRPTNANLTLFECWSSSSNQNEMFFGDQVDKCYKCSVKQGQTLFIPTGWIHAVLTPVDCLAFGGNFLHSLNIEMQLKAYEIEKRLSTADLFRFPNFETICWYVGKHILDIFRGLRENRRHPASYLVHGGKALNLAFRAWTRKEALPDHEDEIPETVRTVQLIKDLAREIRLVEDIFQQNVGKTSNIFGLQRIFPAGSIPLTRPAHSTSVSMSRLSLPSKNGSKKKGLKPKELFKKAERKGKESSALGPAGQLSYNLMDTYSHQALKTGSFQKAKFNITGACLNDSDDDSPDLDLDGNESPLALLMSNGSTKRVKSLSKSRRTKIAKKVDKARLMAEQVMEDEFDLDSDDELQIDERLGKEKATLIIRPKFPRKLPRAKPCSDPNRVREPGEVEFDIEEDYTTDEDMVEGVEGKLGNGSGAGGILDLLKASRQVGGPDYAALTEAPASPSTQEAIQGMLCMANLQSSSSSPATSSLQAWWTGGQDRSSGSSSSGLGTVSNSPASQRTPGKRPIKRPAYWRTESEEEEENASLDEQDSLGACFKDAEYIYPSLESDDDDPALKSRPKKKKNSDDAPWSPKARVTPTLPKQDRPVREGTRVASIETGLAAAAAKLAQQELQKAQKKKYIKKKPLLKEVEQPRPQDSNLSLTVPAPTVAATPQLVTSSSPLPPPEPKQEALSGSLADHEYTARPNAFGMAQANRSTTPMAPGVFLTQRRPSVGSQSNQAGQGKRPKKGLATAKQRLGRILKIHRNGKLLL
How it was run: as §1

[3] = target: T3, XPNPEP3 Probable XaaPro aminopeptidase 3 (Q9NQH7) (Homo sapiens, UniProt Q9NQH7); conditions: SILAC H/L, HEK293T
T3 construct: In Situ Labelling of Cells with Hydrazine Probes for MS Experiments; endogenous in cells; host or cells: HEK293T and/or MDA-MB-231
How it was run: as §1

[4] = target: T4, CYCS Cytochrome c (P99999) (Homo sapiens, UniProt P99999); conditions: SILAC H/L, HEK293T
T4 construct: In Situ Labelling of Cells with Hydrazine Probes for MS Experiments; endogenous in cells; host or cells: HEK293T and/or MDA-MB-231
How it was run: as §1

[5] = target: T5, CYP51A1 Lanosterol 14alpha demethylase (Q16850) (Homo sapiens, UniProt Q16850); conditions: SILAC H/L, HEK293T
T5 construct: In Situ Labelling of Cells with Hydrazine Probes for MS Experiments; endogenous in cells; host or cells: HEK293T and/or MDA-MB-231
T5 sequence (Q16850 whole entry): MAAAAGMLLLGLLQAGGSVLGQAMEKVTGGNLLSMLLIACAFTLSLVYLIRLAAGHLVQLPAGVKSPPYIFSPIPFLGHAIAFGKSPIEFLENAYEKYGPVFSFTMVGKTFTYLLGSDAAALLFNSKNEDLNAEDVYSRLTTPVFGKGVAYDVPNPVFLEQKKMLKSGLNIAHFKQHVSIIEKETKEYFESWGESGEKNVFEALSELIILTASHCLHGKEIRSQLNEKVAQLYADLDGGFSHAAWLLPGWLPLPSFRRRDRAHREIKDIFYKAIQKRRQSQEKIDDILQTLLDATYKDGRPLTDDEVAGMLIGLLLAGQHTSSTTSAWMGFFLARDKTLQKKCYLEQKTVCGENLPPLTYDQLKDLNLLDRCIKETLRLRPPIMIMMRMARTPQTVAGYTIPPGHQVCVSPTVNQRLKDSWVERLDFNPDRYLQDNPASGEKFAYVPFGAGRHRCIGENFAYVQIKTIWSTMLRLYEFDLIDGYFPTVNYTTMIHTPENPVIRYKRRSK
How it was run: as §1

[6] = target: T6, RRM2B Ribonucleosidediphosphate reductase (Q7LG56) (Homo sapiens, UniProt Q7LG56); conditions: SILAC H/L, MDA-MB-231
T6 construct: endogenous in cells; host or cells: HEK293T or MDA-MB-231
How it was run: as §1

[7] = target: T7, ALKBH1 Alkylated DNA repair protein alkB (Q13686) (Homo sapiens, UniProt Q13686); conditions: SILAC H/L, HEK293T
T7 construct: In Situ Labelling of Cells with Hydrazine Probes for MS Experiments; endogenous in cells
T7 sequence (Q13686 whole entry): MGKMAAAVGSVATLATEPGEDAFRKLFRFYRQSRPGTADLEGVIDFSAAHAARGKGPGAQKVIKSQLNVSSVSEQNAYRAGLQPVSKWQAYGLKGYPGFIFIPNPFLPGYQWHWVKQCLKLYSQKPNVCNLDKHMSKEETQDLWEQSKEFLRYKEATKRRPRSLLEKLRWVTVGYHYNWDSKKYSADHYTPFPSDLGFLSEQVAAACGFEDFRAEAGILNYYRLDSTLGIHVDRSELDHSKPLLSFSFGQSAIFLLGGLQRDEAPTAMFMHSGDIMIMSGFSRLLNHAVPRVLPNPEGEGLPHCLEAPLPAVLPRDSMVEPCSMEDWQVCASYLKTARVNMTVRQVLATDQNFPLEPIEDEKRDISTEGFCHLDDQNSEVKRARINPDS
How it was run: as §1

[8] = target: T8, PTGR2 Prostaglandin reductase 2 (Q8N8N7) (Homo sapiens, UniProt Q8N8N7); conditions: SILAC H/L, MDA-MB-231
T8 construct: endogenous in cells; host or cells: HEK293T or MDA-MB-231
How it was run: as §1

[9] = target: T9, MINA MYCinduced nuclear antigen (Q8IUF8) (Homo sapiens, UniProt Q8IUF8); conditions: SILAC H/L, HEK293T
T9 construct: In Situ Labelling of Cells with Hydrazine Probes for MS Experiments; endogenous in cells; host or cells: HEK293T and/or MDA-MB-231
T9 sequence (Q8IUF8 whole entry): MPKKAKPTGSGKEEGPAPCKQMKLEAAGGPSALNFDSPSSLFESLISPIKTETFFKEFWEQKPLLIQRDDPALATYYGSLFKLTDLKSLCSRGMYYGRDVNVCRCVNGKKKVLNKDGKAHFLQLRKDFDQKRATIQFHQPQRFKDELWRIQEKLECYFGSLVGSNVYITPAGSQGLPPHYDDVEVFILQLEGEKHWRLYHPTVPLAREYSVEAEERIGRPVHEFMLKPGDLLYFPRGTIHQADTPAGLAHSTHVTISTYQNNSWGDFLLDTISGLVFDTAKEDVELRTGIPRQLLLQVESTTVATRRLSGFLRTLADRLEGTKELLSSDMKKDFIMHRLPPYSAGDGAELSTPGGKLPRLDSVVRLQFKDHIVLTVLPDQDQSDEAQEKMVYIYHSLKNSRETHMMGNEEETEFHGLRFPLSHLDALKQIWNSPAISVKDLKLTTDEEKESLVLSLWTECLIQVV
How it was run: as §1

[10] = target: T10, HMOX2 Heme oxygenase 2 (P30519) (Homo sapiens, UniProt P30519); conditions: SILAC H/L, HEK293T
T10 construct: In Situ Labelling of Cells with Hydrazine Probes for MS Experiments; endogenous in cells; host or cells: HEK293T and/or MDA-MB-231
T10 sequence (P30519 whole entry): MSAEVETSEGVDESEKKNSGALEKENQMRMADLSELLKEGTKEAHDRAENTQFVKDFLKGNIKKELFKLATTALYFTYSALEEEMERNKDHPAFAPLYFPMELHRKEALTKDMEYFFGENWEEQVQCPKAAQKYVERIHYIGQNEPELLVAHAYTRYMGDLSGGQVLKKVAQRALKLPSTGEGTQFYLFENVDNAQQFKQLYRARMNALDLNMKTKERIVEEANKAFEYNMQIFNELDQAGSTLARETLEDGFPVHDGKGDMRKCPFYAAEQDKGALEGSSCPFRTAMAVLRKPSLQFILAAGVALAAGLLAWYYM
How it was run: as §1

[11] = target: T11, ACOX1 Peroxisomal acylcoenzyme A oxidase 1 (Q15067) (Homo sapiens, UniProt Q15067); conditions: SILAC H/L, HEK293T
T11 construct: In Situ Labelling of Cells with Hydrazine Probes for MS Experiments; endogenous in cells; host or cells: HEK293T and/or MDA-MB-231
T11 sequence (Q15067 whole entry): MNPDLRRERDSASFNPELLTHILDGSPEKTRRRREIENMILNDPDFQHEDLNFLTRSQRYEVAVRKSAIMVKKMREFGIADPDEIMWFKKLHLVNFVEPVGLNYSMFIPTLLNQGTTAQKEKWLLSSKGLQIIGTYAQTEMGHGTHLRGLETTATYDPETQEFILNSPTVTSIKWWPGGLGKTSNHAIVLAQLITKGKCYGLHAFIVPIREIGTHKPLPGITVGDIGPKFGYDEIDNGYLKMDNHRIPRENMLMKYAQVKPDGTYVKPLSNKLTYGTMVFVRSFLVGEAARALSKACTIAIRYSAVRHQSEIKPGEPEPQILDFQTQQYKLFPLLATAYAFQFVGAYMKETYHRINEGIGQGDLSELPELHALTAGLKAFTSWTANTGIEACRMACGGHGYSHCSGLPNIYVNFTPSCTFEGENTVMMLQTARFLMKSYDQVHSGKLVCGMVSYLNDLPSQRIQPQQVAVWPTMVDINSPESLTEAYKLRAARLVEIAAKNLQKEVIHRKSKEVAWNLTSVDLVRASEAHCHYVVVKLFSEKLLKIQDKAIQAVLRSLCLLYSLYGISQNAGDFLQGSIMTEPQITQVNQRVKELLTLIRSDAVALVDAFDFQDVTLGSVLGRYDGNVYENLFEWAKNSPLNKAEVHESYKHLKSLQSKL
How it was run: as §1

[12] = target: T12, PRCP Lysosomal ProX carboxypeptidase (P42785) (Homo sapiens, UniProt P42785); conditions: SILAC H/L, MDA-MB-231
T12 construct: endogenous in cells; host or cells: HEK293T or MDA-MB-231
How it was run: as §1

[13] = target: T13, ASAH1 Acid ceramidase (Q13510) (Homo sapiens, UniProt Q13510); conditions: SILAC H/L, MDA-MB-231
T13 construct: endogenous in cells; host or cells: HEK293T or MDA-MB-231
T13 sequence (Q13510 22-395): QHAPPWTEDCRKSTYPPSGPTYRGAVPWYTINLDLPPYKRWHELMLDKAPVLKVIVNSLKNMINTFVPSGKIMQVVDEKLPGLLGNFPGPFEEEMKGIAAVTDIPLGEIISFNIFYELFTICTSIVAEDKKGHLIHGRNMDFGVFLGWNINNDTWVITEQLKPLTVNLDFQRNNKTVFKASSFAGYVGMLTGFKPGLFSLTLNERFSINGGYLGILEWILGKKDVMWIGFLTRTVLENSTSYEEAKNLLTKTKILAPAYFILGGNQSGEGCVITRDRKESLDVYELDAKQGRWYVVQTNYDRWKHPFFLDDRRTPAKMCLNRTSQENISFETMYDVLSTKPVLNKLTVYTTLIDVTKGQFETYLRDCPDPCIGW
How it was run: as §1

[14] = target: T14, ERAP1 Endoplasmic reticulum aminopeptidase (Q9NZ08) (Homo sapiens, UniProt Q9NZ08); conditions: SILAC H/L, MDA-MB-231
T14 construct: endogenous in cells; host or cells: HEK293T or MDA-MB-231
T14 sequence (Q9NZ08 whole entry): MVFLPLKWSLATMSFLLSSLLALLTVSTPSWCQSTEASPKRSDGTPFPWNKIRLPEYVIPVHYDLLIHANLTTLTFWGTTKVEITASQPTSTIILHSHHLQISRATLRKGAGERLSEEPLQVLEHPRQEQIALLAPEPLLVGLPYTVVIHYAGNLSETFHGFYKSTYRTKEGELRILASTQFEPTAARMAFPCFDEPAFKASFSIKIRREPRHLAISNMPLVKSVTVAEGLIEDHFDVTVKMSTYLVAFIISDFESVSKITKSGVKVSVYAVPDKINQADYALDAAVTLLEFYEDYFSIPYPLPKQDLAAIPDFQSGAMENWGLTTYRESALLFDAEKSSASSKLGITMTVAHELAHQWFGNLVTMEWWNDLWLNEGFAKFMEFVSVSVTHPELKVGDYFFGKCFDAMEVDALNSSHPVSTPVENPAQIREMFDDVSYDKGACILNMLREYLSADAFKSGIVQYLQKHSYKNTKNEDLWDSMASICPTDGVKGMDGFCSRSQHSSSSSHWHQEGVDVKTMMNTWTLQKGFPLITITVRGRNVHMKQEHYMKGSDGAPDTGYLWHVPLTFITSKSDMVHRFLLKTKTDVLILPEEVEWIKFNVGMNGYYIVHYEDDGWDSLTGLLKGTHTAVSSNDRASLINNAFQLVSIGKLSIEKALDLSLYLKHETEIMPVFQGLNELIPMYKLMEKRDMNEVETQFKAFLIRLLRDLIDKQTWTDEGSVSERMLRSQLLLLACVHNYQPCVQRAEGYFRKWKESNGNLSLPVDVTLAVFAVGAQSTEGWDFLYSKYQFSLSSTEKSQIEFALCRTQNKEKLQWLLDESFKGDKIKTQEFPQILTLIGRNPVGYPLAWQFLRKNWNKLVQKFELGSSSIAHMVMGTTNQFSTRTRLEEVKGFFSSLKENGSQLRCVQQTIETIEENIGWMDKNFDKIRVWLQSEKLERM
How it was run: as §1

T1 sequence (P61106 whole entry): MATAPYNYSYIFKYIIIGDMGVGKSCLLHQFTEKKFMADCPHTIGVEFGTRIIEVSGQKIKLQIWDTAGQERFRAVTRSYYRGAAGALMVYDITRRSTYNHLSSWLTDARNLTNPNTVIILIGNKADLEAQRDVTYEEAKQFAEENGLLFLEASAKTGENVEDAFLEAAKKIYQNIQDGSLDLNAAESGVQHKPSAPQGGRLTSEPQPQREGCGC

Work on `C#CCCNC(=O)c1ccc(NN)cc1.Cl` [probe 2, N-(but-3-yn-1-yl)-4-hydrazinylbenzamide hydrochloride] yielded an enrichment ratioavg ([1]; probe 2 1 mM 0.5 h vs probe 4) of 5, a competition ratioavg ([1]; probe 2 vs probe 2+10x probe 4) of 3 and an enrichment ratioavg ([2]; probe 2 1 mM 0.5 h vs probe 4) of 20. The competition ratioavg ([2]; probe 2 vs probe 2+10x probe 4) was 15, the enrichment ratioavg ([3]; probe 2 1 mM 0.5 h vs probe 4) was 20 and the competition ratioavg ([3]; probe 2 vs probe 2+10x probe 4) was 4. It also gave an enrichment ratioavg ([4]; probe 2 1 mM 0.5 h vs probe 4) of 7, a competition ratioavg ([4]; probe 2 vs probe 2+10x probe 4) of 0 and an enrichment ratioavg ([5]; probe 2 1 mM 0.5 h vs probe 4) of 14. For the same compound, the competition ratioavg ([5]; probe 2 vs probe 2+10x probe 4) was 6, the enrichment ratioavg ([6]; probe 2 1 mM 0.5 h vs probe 4) was 7 and the competition ratioavg ([6]; probe 2 vs probe 2+10x probe 4) was 2. It also gave an enrichment ratioavg ([7]; probe 2 1 mM 0.5 h vs probe 4) of 20, a competition ratioavg ([7]; probe 2 vs probe 2+10x probe 4) of 8 and an enrichment ratioavg ([8]; probe 2 1 mM 0.5 h vs probe 4) of 15. It also gave a competition ratioavg ([8]; probe 2 vs probe 2+10x probe 4) of 1, an enrichment ratioavg ([9]; probe 2 1 mM 0.5 h vs probe 4) of 8 and a competition ratioavg ([9]; probe 2 vs probe 2+10x probe 4) of 2. For the same compound, the enrichment ratioavg ([10]; probe 2 1 mM 0.5 h vs probe 4) was 20, the competition ratioavg ([10]; probe 2 vs probe 2+10x probe 4) was 5 and the enrichment ratioavg ([11]; probe 2 1 mM 0.5 h vs probe 4) was 19. For the same compound, the competition ratioavg ([11]; probe 2 vs probe 2+10x probe 4) was 2, the enrichment ratioavg ([12]; probe 2 1 mM 0.5 h vs probe 4) was 15 and the competition ratioavg ([12]; probe 2 vs probe 2+10x probe 4) was 4. For the same compound, the enrichment ratioavg ([13]; probe 2 1 mM 0.5 h vs probe 4) was 20, the competition ratioavg ([13]; probe 2 vs probe 2+10x probe 4) was 4 and the enrichment ratioavg ([14]; probe 2 1 mM 0.5 h vs probe 4) was 8. The competition ratioavg ([14]; probe 2 vs probe 2+10x probe 4) was 4.
